Source: patent publication US20140005153A1, “Off-Note Masking” (GIVAUDAN S. A., priority 2011, published 2014)

Columns and labels:
[1] = sweetness enhancement detection level; conditions: in vivo
Description: (§1) There is also provided an orally-receivable or -ingestible composition comprising an off-note-masking proportion of 1-(2-hydroxyphenyl)-3-(pyridin-4-yl)propane-1-one or a salt thereof 1-(2-hydroxyphenyl)-3-(pyridin-4-yl)propane-1-one (hereinafter referred to as “Compound 1”) is disclosed in United States published application No. 2010/272656. In this publication, the compound is described as an effective sweetness enhancer. It is a surprising feature of this disclosure that the same compound can deliver an off-note- or off-taste-masking effect at a concentration far below the concentration at which it is perceived as sweet. The minimum level at which the sweetness enhancement effect of Compound 1 can be detected is 35 ppm, but the off-note- or off-taste-masking effect of the masker can be as low as 2.5 ppm. A practical maximum for off-note masking is 10 ppm.

[2] = blind bench-top tasting panel, soy yogurt; format: in vivo
Description: (§2) The following compositions are made and tested blind. Using a blind bench-top tasting panel (consisting of 4 to 8 panelists), panelists were asked to record the sensory attribute differences between the control and example samples, specifically focusing on off-notes (reduction or differences).
Soy Yogurt (O'Soy Organic Soy Yogurt Strawberry Flavor—5 g Protein Per 4 oz Serving)

[3] = blind bench-top tasting panel, OTC syrup; format: in vivo
Protocol: as §2, with “differences). Over-the-Counter (OTC) Syrup (Kroger Daytime Cold/Flu Relief (Acetaminophen 325 mg per 15 mL; Dextromethorphan HBr 10 mg per 15 mL; Phenylephrine HCl 5 mg per 15 mL))” for “differences).”

[4] = blind bench-top tasting panel, cocoa; format: in vivo
Description: as §2
Cocoa (Dilute 10% in Water to Consume) (Kroger Cocoa Unsweetened)

[5] = blind bench-top tasting panel, proteinaceous supplement; format: in vivo
Description: as §2
Proteinaceous Supplement (GNC Pro Performance 100% Whey Protein)

[6] = blind bench-top tasting panel, fortified mayonnaise; format: in vivo
Protocol: as §2
Fortified Mayonnaise (Smart Balance Omega Plus Light Mayonnaise Dressing—Omega-3 (500 Mg Per 15 g Serving) and Plant Sterols (100 Mg Per 15 g Serving)

[7] = off-note / off-taste masking, lowest effective level; conditions: in vivo
Description: as §1

[8] = 0.002% by weight in cocoa (unsweetened)
[9] = 0.0015% by weight in whey protein supplement

Row | Structure (SMILES) | minimum level at which the sweetness enhancement effect can be detected [1] [ppm] | panelist preference over the control ([2]; 0.002% by weight in soy yogurt) | panelist preference over the control ([3]; 0.003% by weight in OTC syrup) | panelist preference over the control [4, 8] | panelist preference over the control ([5]; 0.003% by weight in whey protein supplement) | panelist preference over the control ([6]; 0.00025% by weight in fortified mayonnaise) | off-note- or off-taste-masking effect can be as low as [7] [ppm] | panelist preference over the control [5, 9] | panelist preference over the control ([6]; 0.0005% by weight in fortified mayonnaise) | panelist preference over the control ([2]; 0.001% by weight in soy yogurt) | panelist preference over the control ([3]; 0.002% by weight in OTC syrup) | panelist preference over the control ([4]; 0.001% by weight in cocoa (unsweetened)) | panelist preference over the control ([6]; 0.001% by weight in fortified mayonnaise)
1 | O=C(CCc1ccncc1)c1ccccc1O [Compound 1, 1-(2-hydroxyphenyl)-3-(pyridin-4-yl)propane-1-one] | 35 | preferred | preferred | preferred | preferred | preferred | 2.5 | – | – | – | – | – | –
2 | CC1CCC(CCCC(=O)O)C1(C)C (centres unmarked) [Compound 2, 4-[2,2,3-trimethyl-cyclopentyl]-butanoic acid] | – | preferred | preferred | preferred | – | – | – | preferred | preferred | – | – | – | –
3 | CCc1c(C)c2ccc(OC(C)C(=O)O)c(C)c2oc1=O (centres unmarked) [Compound 3, 2-[(3-ethyl-4,8-dimethyl-2-oxo-2H-chromen-7-yl)oxy]propanoic acid] | – | – | – | – | – | – | – | preferred | – | preferred | preferred | preferred | preferred
